The values that follow come from patent publication US20030032153A1, “Novel (R)-2,3-butanediol dehydrogenase, methods for producing same, and methods for producing optically active alcohol using the dehydrogenase” (priority 2001, published 2003).

In series [1] the test system is (R)-2,3-butanediol dehydrogenase. Kind of series: Substrate specificity, oxidation reaction of the enzyme obtained in Example 1 with alcohols. The following applies: for Relative Activity, Oxidation Reaction: coenzyme NAD+, oxidation of (R)-1,3-butanediol taken as 100. The format is biochemical, Kluyveromyces lactis. The method, then: (§1) A reaction solution containing 50 mM potassium phosphate buffer (pH 6.5), 2.5 mM NAD^+, 20 mM (R)-1,3-butanediol, and the enzyme is reacted at 30° C., and the increase in absorbance at 340 nm due to the increase of NADH is measured. 1 U is defined as the amount of enzyme that catalyzes an increase of 1 μmol NADH in one minute. Further, the quantity of the protein is determined by the pigment bonding method using protein assay kit (Biorad).
Herein, the relative activity is indicated taking the oxidation of (R)-1,3-butanediol and reduction of 4-hydroxy-2-butanone as 100.

Series [2] has the same test system. In words: Stereoselectivity, oxidation of alcohol isomers by the enzyme obtained in Example 1. The class given is biochemical, Kluyveromyces lactis. The following applies: coenzyme NAD+; higher oxidation activity between the two isomers taken as 100. The method, then: as §1
The enzyme obtained in Example 1 was reacted with 1,3-butanediol, 1,2-propanediol, 2,3-butanediol, 2-butanol, and 3-chloro-1,2-propanediol, and the activities are shown in Table 3. Herein, the relative activity is indicated, taking the higher oxidation activity between the two isomers as 100. The stereoselectivity for 2,3-butanediol, and 1,2-propandiol of the (R)-2,3-butanediol dehydrogenase according to the present invention was extremely high.

Series [3] has the same test system. In words: Substrate specificity, reduction reaction of the enzyme obtained in Example 1 with ketones. The class given is biochemical, Kluyveromyces lactis. The following applies: coenzyme NADH; reduction of 4-hydroxy-2-butanone taken as 100. The method, then: (§2) A reaction solution containing 50 mM potassium phosphate buffer (pH 6.5), 0.2 mM NADH, 20 mM 4-hydroxy-2-butanone, and the enzyme is reacted at 30° C., and the decrease in absorbance at 340 nm due to the decrease in NADH is measured. 1 U is defined as the amount of enzyme that catalyzes a decrease of 1 μmol NADH in one minute.
The enzyme obtained in Example 1 was reacted with various alcohols and ketones, and the activity of oxidation and reduction is shown in Table 2. Herein, the relative activity is indicated taking the oxidation of (R)-1,3-butanediol and reduction of 4-hydroxy-2-butanone as 100.

For series [4], the target named is T1, Glycerol dehydrogenase produced from Escherichia coli W-1485 (Escherichia coli, UniProt P0A9S5).
T1 construct: host or cells: Escherichia coli W-1485
T1 sequence (P0A9S5 1-367): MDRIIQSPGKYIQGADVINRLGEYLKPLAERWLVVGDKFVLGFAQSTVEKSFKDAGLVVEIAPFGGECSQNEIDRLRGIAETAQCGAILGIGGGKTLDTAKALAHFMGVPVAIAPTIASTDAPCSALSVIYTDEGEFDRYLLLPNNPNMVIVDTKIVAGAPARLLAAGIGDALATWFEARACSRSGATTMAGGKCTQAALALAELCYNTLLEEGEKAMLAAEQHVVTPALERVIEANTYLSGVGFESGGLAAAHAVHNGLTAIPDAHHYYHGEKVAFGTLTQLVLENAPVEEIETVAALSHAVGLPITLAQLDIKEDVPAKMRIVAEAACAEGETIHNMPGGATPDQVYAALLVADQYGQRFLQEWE
The note with it: J. Biol. Chem. 259: 2124-2129, 1984; NAD+ reduction; cited from earlier work.

Series [5] concerns (R)-2,3-butanediol dehydrogenase. In words: Substrate specificity, reduction reaction of the enzyme obtained in Example 1 with ketones. The format is biochemical, Kluyveromyces lactis.
Series [6] is described as follows: Reduction activity on 4-hydroxy-2-butanone of the purified enzyme. The format is biochemical, Kluyveromyces lactis. The following applies: 4-hydroxy-2-butanone reduction activity. The procedure:
as §2
Kluyveromyces lactis strain IFO 1267 was cultured in 1.2 liters of YM medium (glucose 20 g/L, yeast extract 3 g/L, malt extract 3 g/L, peptone 5 g/L, pH 6.0) and the cell bodies were prepared by centrifugation. The resulting wet cell bodies were suspended in 50 mM potassium phosphate buffer (pH 8.0), containing 0.02% 2-mercaptoethanol and 2 mM phenylmethane sulfonylfluoride (PMSF), and after homogenizing with Bead Beater (Biospec), the residue of the cell bodies were removed by centrifugation to obtain a cell-free extract. Protamine sulfate was then added to the cell-free extract followed by centrifugation to obtain enucleated supernatant. […]
The (R)-1,3-butanediol oxidation activity and 4-hydroxy-2-butanone reduction activity of the enzyme obtained in Example 1 were measured by changing only the temperature of the standard reaction conditions. […]

The nature of series [7]: Oxidation activity on (R)-1,3-butanediol of the purified enzyme. The note with it: (R)-1,3-butanediol oxidation activity. The format is biochemical, Kluyveromyces lactis. The procedure:
as §1
The (R)-1,3-butanediol oxidation activity and 4-hydroxy-2-butanone reduction activity of the enzyme obtained in Example 1 was investigated by changing the pH using potassium phosphate buffer solution, sodium acetate buffer solution, and Britton-Robinson wide-range buffer solution. The oxidation activity and the reduction activity are depicted in FIGS. 2 and 3, respectively, wherein the relative activity are indicated taking the maximum activity as 100. The optimum pH was 6.0 for both reactions, oxidation and reduction.
The (R)-1,3-butanediol oxidation activity and 4-hydroxy-2-butanone reduction activity of the enzyme obtained in Example 1 were measured by changing only the temperature of the standard reaction conditions. […] The optimum reaction temperature was 37° C. for both reactions, oxidation and reduction.

As for `OC[C@H](O)CCl` [(S)-3-chloro-1,2-propanediol], the “Relative Activity, Oxidation Reaction” value in series [1] was 128. Further, the “Relative Activity (stereoselectivity)” value in series [2] was 100.
Take `CCC(=O)CO` [1-Hydroxy-2-butanone]: in series [3], the “Relative Activity, Reduction Reaction” value is 12100.
Take `C[C@@H](O)[C@@H](C)O` [(2R, 3R)-butanediol, (2R,3R)-2,3-butanediol]: in series [1], the “Relative Activity, Oxidation Reaction” value is reported as 15600. The “Relative Activity (stereoselectivity)” value in series [2] stood at 100. In addition, the Vmax in series [4] was 28.0 U/mg protein.
`CC(=O)C(C)O` (stereo not drawn) [Acetoin]: in series [3], the “Relative Activity, Reduction Reaction” value was 101000.
Turning to (R)-2-butanol, the “Relative Activity, Oxidation Reaction” value in series [1] is 28. Also, the “Relative Activity (stereoselectivity)” value in series [2] is 100.
Take `CC(=O)CCO` [4-Hydroxy-2-butanone]: in series [3], the “Relative Activity, Reduction Reaction” value was determined as 100.
Same read-out and setting: for `CC(=O)CC(C)=O` [2,4-Pentanedione] the value was 0.
As for `OC[C@@H](O)CCl` [(R)-3-chloro-1,2-propanediol], in series [2], the “Relative Activity (stereoselectivity)” value was 29.
Consider `O=C(CO)c1ccccc1` [2-Hydroxy-acetophenone], for which the “Relative Activity, Reduction Reaction” value in series [3] is 360.
On the same count and under the same terms, for `CC(=O)C(C)=O` [2,3-Butanedione] the value was 46400.
With `C[C@@H](O)CCO` [(R)-1,3-butanediol], the “Relative Activity, Oxidation Reaction” value in series [1] is on record as 100. Moreover, in series [2], the “Relative Activity (stereoselectivity)” value was determined as 100.
Regarding `CCOC(=O)CC(=O)CCl` [4-Chloro-ethyl acetoacetate], the “Relative Activity, Reduction Reaction” value in series [3] is on record as 0.
Take `C[C@H](O)[C@H](C)O` [(2S,3S)-2,3-butanediol]: the “Relative Activity (stereoselectivity)” value in series [2] was 1.
As to `CC(C)=O` [Acetone], in series [3], the “Relative Activity, Reduction Reaction” value turned out to be 63.
On to `CCO` [Ethanol], for which the “Relative Activity, Oxidation Reaction” value in series [1] is listed as 0.
The same measure, in the same setting: to `CC(C)O` [Isopropyl alcohol] belongs 48; to n-Butanol, 0.
Consider `C[C@H](O)CO` [(S)-1,2-propanediol], for which the “Relative Activity (stereoselectivity)” value in series [2] turned out to be 1.
Regarding `C[C@@H](O)CO` [(R)-1,2-propanediol], the “Relative Activity, Oxidation Reaction” value in series [1] is reported as 13800. Also, in series [2], the “Relative Activity (stereoselectivity)” value is listed as 100.
In the case of `CC(=O)c1ccccc1` [Acetophenone], in series [3], the “Relative Activity, Reduction Reaction” value came out at 36.
On the same count and under the same terms, for `CCC(=O)C(C)=O` [2,3-Pentanedione] the value was 51400.
As for (S)-2-butanol, in series [2], the “Relative Activity (stereoselectivity)” value came to 75.
With `OCC(O)CO` [Glycerin], the “Relative Activity, Oxidation Reaction” value in series [1] is 66.
For the molecule `CCOC(=O)CC(C)=O` [Ethyl acetoacetate], the “Relative Activity, Reduction Reaction” value in series [3] was found to be 0.
As to `NC(=O)C1=CN([C@@H]2O[C@H](COP(=O)(O)OP(=O)(O)OC[C@H]3O[C@@H](n4cnc5c(N)ncnc54)[C@H](OP(=O)(O)O)[C@@H]3O)[C@@H](O)[C@H]2O)C=CC1` [NADPH, reduced β-nicotinamide adenine dinucleotide phosphate], the “use as a coenzyme in the reduction reaction” value in series [5] is “substantially unable to use”.
On to `CCC(=O)CC` [3-Pentanone], for which the “Relative Activity, Reduction Reaction” value in series [3] is recorded as 100.
Regarding `NC(=O)c1ccc[n+]([C@@H]2O[C@H](COP(=O)([O-])OP(=O)(O)OC[C@H]3O[C@@H](n4cnc5c(N)ncnc54)[C@H](OP(=O)(O)O)[C@@H]3O)[C@@H](O)[C@H]2O)c1` [NADP^+, β-nicotinamide adenine dinucleotide phosphate], the “use as a coenzyme in the oxidation reaction” value in series [1] was “substantially unable to use”.
`CC(=O)CO` [Acetol]: the “Relative Activity, Reduction Reaction” value in series [3] stood at 53600.
On the same count and under the same terms, for `CCC(C)=O` [2-Butanone] the value was 31.
`C[C@H](O)CCO` [(S)-1,3-butanediol]: the “Relative Activity (stereoselectivity)” value in series [2] is on record as 35.

B1: enzyme obtained in Example 1: NAD+-dependent (R)-2,3-butanediol dehydrogenase purified from Kluyveromyces lactis strain IFO 1267 (SEQ ID NO:2) (protein, listed as Kluyveromyces lactis)
chain: MRALAYFGKQDIRYTKDLEEPVIETDDGIEIEVSWCGICGSDLHEYLDGPIFFPEDGKVHDVSGLGLPQAMGHEMSGIVSKVGPKVTNIKAGDHVVVEATGTCLDHYTWPNAAHAKDAECAACQRGFYNCCAHLGFMGLGVHSGGFAEKVVVSEKHVVKIPNTLPLDVAALVEPISVSWHAVRISKLQKGQSALVLGAGPIGLATILALQGHGASKIVVSEPAEIRRNQAAKLGVETFDPSEHKEDAVNILKKLAPGGEGFDFAYDCSGVKPTFDTGVHATTFRGMYVNIAIWGHKPIDFKPMDVTLQEKFVTGSMCYTIKDFEDVVQALGNGSIAIDKARHLITGRQKIEDGFTKGFDELMNHKEKNIKILLTPNNHGELDATN
For B1, in series [6], the “optimum pH, reduction” value came to 6.0. For the same molecule, the specific activity entry in series [6] (after hydroxyapatite column) is on record as “about 1.5 U/mg”. Moreover, the “optimum pH, oxidation” value in series [7] stood at 6.0.
